Where two headings read alike, the source gives them in different places.
Assays:
[1] = test system: insects; assay: Length of protection against insect bites after application on the skin (conducted tests); type: in vivo
Text: Icaridin and DEET are employed in this synergic mixture as active ingredient.

[2] = test system: insects; conditions: cited from earlier work
[3] = 5% active ingredient in the repellent
[4] = 10% active ingredient in the repellent
[5] = 15% active ingredient in the repellent
[6] = 20% active ingredient in the repellent

N,N-dimethyl-3-methylbenzamide [DEET]
Length of protection against insect bites ([1]; 7% concentration in the insect repellent): 2 h | Length of protection against insect bites ([1]; 50% concentration in the insect repellent): 10 h | Repellent Capacity Length of Protection [2, 3]: 1 h | Repellent Capacity Length of Protection [2, 4]: 2 h | Repellent Capacity Length of Protection [2, 5]: 4 h | Repellent Capacity Length of Protection [2, 6]: 6 h | Repellent Capacity Length of Protection ([2]; 50% active ingredient in the repellent): 10 h | Length of protection against insect bites ([2]; concentration of 50%): 10 h

CCC(C)OC(=O)N1CCCCC1CCO (stereo not drawn) [Icaridin, 1-piperidinecarboxylic acid, 2-(2-hydroxyethyl)-, 1-methylpropyl ester]
Length of protection against insect bites ([1]; 10% concentration in the insect repellent): 4 h | Length of protection against insect bites ([1]; 20% concentration in the insect repellent): 10 h | Repellent Capacity Length of Protection [2, 3]: 1.5 h | Repellent Capacity Length of Protection [2, 4]: 4 h | Repellent Capacity Length of Protection [2, 5]: 7 h | Repellent Capacity Length of Protection [2, 6]: 10 h | Length of protection against insect bites ([2]; concentrations between 20 to 25%): up to 10 hours

Reference: US20180020667A1, “CHEMICAL COMPOSITIONS THAT PRESENT SYNERGIC EFFECT FOR […] INSECTS IN PERSONAL HYGIENE PRODUCTS, COSMETICS FOR HUMAN USE, IN ANIMALS AND ON INANIMATE SURFACES IN GENERAL” (Universal Chemical Ltda., priority 2016, published 2018)
